From US20240083886A1, “HETEROCYCLIC GLP-1 AGONISTS” (Gasherbrum Bio, Inc., priority 2020, published 2024)

target: GLP-1 Receptor (Homo sapiens, UniProt P43220); experiment: GLP-1R agonist cAMP stimulation assay; format: cell-based; conditions: not given
Procedure: Activation of GLP-1 receptor is known to stimulate cyclic AMP (cAMP) production in cells which indicates primary coupling to the Gαs subunit of the G protein heterotrimeric complex.
To optimize functional activity directed toward Gαs coupling, a HEK293/CRE-Luc cell line developed by HDB stably expressing the GLP-1 Receptor was used. 200× concentration of compound working solutions were prepared (Agilent Technologies Bravo) with ½ log serial dilution in 384-well Echo LDV plate (Labcyte, Cat #LP-0200). 50 nL/well 200× concentration of compound working solutions were moved to 384-well white low volume plate (Greiner, Cat #784075) using Labcyte ECHO550. 1×10^5 cells/mL HEK293/GLP1R/CRE-LUC(HD Biosciences) cell suspensions prepared with assay buffer[DPBS containing 0.5 mM IBMX(Sigma, Cat #15879) and 0.1% BSA (GENVIEW, Cat #FA016-100 g)], 10 uL cell suspensions were added to each well of previous generated assay plate which already contains 50 nl compound at 200×concentration using ThermoFisher Multidrop Combi (1000 cells/well). Seal the plate and incubate at 37° C. with 5% CO2 for 30 min.
After incubation the cAMP assay signal was generated using cAMP dynamic 2 Kit (Cisbio). 5 μL cAMP-d2 working solution was added to each well, followed with 5 μL Anti-cAMP antibody-cryptate working solution added to each well using ThermoFisher Multidrop Combi. Incubate at room temperature for 1 hour protected from light. Read the fluorescence at 665 and 615 nm with Reader PerkinElmer EnVision.
% Activity=100%×(mean RLU of test sample−mean RLU of vehicle control)/(mean RLU of MAX control−mean RLU of vehicle control))

Sequence of GLP-1 Receptor (P43220 24-463, species assumed): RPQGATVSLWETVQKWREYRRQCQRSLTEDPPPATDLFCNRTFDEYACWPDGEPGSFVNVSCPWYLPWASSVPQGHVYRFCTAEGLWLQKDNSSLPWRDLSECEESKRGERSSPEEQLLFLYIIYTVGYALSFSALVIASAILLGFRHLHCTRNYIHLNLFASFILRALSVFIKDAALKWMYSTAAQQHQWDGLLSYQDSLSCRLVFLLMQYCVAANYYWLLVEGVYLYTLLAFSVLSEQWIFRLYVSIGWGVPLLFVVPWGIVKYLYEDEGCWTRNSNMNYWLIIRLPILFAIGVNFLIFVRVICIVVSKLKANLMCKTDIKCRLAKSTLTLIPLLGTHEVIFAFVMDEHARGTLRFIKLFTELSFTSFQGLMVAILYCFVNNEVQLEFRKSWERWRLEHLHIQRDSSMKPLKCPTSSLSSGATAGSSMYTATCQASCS

| EC50 | SMILES |
| --- | --- |
| 7.6 nM | Cc1ncc(-c2ccc3c(c2)nc(CN2CCC(Oc4ccnc(Cc5ccc(Cl)cc5)n4)CC2)n3C[C@@H]2CCO2)s1 [Compound 129a, 2-{[4-({2-[(4-chlorophenyl)methyl]pyrimidin-4-yl}oxy)piperidin-1-yl]methyl}-5-(2-methyl-1,3-thiazol-5-yl)-1-{[(2S)-oxetan-2-yl]methyl}-1H-1,3-benzodiazole] |
| 1.7 nM | FC(F)(F)c1nnc(-c2cc3nc(CN4CCC(Oc5cccc(Cc6ccc(Cl)cc6)n5)CC4)n(C[C@@H]4CCO4)c3cn2)[nH]1 [Compound 140a, 2-[(4-chlorophenyl)methyl]-6-({1-[(3-{[(2S)-oxetan-2-yl]methyl}-6-[5-(trifluoromethyl)-4H-1,2,4-triazol-3-yl]-3H-imidazo[4,5-c]pyridin-2-yl)methyl]piperidin-4-yl}oxy)pyridine] |
| 1.5 nM | Fc1cc(Cl)ccc1Cc1ncc(F)c(OC2CCN(Cc3nc4cc(-c5nnc[nH]5)ncc4n3C[C@@H]3CCO3)CC2)n1 [Compound 169a, 2-[(4-chloro-2-fluorophenyl)methyl]-5-fluoro-4-({1-[(3-{[(2S)-oxetan-2-yl]methyl}-6-(4H-1,2,4-triazol-3-yl)-3H-imidazo[4,5-c]pyridin-2-yl)methyl]piperidin-4-yl}oxy)pyrimidine] |
| 1.8 nM | Fc1cc(Cl)ccc1Cc1nccc(OC2CCN(Cc3nc4cc(-c5nnc[nH]5)ncc4n3C[C@@H]3CCO3)CC2)n1 [Compound 166a, 2-[(4-chloro-2-fluorophenyl)methyl]-4-({1-[(3-{[(2S)-oxetan-2-yl]methyl}-6-(4H-1,2,4-triazol-3-yl)-3H-imidazo[4,5-c]pyridin-2-yl)methyl]piperidin-4-yl}oxy)pyrimidine] |
| 1.8 nM | Cc1cc(-c2ccc3c(c2)nc(CN2CCC(Oc4ccnc(Cc5ccc(Cl)cc5)n4)CC2)n3C[C@@H]2CCO2)[nH]n1 [Compound 131a, 2-{[4-({2-[(4-chlorophenyl)methyl]pyrimidin-4-yl}oxy)piperidin-1-yl]methyl}-5-(3-methyl-1H-pyrazol-5-yl)-1-{[(2S)-oxetan-2-yl]methyl}-1H-1,3-benzodiazole] |
| 0.32 nM | Cc1n[nH]c(-c2ccc3c(c2)nc(CN2CCC(Oc4ccnc(Cc5ccc(Cl)cc5)n4)CC2)n3C[C@@H]2CCO2)n1 [Compound 126a, 2-{[4-({2-[(4-chlorophenyl)methyl]pyrimidin-4-yl}oxy)piperidin-1-yl]methyl}-5-(3-methyl-1H-1,2,4-triazol-5-yl)-1-{[(2S)-oxetan-2-yl]methyl}-1H-1,3-benzodiazole] |

same assay, conditions: HEK293/GLP1R/CRE-LUC cells, cAMP dynamic 2 Kit (Cisbio), 30 min incubation at 37° C.; read-out: EC50

| EC50 | SMILES |
| --- | --- |
| 0.17 nM | O=c1[nH]c(-c2cc3nc(CN4CCC(Oc5nc(Cc6ccc(Cl)cc6F)ncc5F)CC4)n(C[C@@H]4CCO4)c3cn2)no1 [Compound 171a, 3-(2-{[4-({2-[(4-chloro-2-fluorophenyl)methyl]-5-fluoropyrimidin-4-yl}oxy)piperidin-1-yl]methyl}-3-{[(2S)-oxetan-2-yl]methyl}-3H-imidazo[4,5-c]pyridin-6-yl)-4,5-dihydro-1,2,4-oxadiazol-5-one] |
| 0.089 nM | O=C(Nc1ccc2c(c1)nc(CN1CCC(Oc3ccnc(Cc4ccc(Cl)cc4F)n3)CC1)n2C[C@@H]1CCO1)c1cccnc1 [Compound 111a, N-(2-{[4-({2-[(4-chloro-2-fluorophenyl)methyl]pyrimidin-4-yl}oxy)piperidin-1-yl]methyl}-1-{[(2S)-oxetan-2-yl]methyl}-1H-1,3-benzodiazol-5-yl)pyridine-3-carboxamide] |
| 15 nM | O=c1[nH]c(-c2ccc3c(c2)nc(CN2CCC(Oc4cccc(Cc5ccc(Cl)cc5F)n4)CC2)n3C[C@@H]2CCO2)no1 [Compound 109a] |
| 11 nM | Fc1cnc(Cc2ccc(Cl)cc2)nc1OC1CCN(Cc2nc3cc(-c4nnc(C(F)(F)F)[nH]4)ccc3n2C[C@H]2CCOC2)CC1 [Compound 147a, 2-{[4-({2-[(4-chlorophenyl)methyl]-5-fluoropyrimidin-4-yl}oxy)piperidin-1-yl]methyl}-1-{[(3R)-oxolan-3-yl]methyl}-5-[5-(trifluoromethyl)-4H-1,2,4-triazol-3-yl]-1H-1,3-benzodiazole] |
| 43 nM | O=C(Nc1ccc2c(c1)nc(CN1CCC(Oc3ccnc(Cc4ccc(Cl)cc4F)n3)CC1)n2C[C@@H]1CCO1)c1ccc(-c2ccccc2)nc1 [Compound 119a, N-(2-{[4-({2-[(4-chloro-2-fluorophenyl)methyl]pyrimidin-4-yl}oxy)piperidin-1-yl]methyl}-1-{[(2S)-oxetan-2-yl]methyl}-1H-1,3-benzodiazol-5-yl)-6-phenylpyridine-3-carboxamide] |
| 0.2 nM | Fc1cc(Cl)ccc1Cc1nccc(OC2CCN(Cc3nc4cc(-c5nnc(C(F)(F)F)[nH]5)nnc4n3C[C@@H]3CCO3)CC2)n1 [Compound 182a, 2-[(4-chloro-2-fluorophenyl)methyl]-4-({1-[(7-{[(2S)-oxetan-2-yl]methyl}-3-[5-(trifluoromethyl)-4H-1,2,4-triazol-3-yl]-7H-imidazo[4,5-c]pyridazin-6-yl)methyl]piperidin-4-yl}oxy)pyrimidine] |
| 41 nM | Fc1cc(Cl)ccc1Cc1cccc(OC2CCN(Cc3nc4cc(-c5nnc(C(F)(F)F)[nH]5)ncc4n3C3CCOCC3)CC2)n1 [Compound 191, 2-[(4-chloro-2-fluorophenyl)methyl]-6-[(1-{[3-(oxan-4-yl)-6-[5-(trifluoromethyl)-4H-1,2,4-triazol-3-yl]-3H-imidazo[4,5-c]pyridin-2-yl]methyl}piperidin-4-yl)oxy]pyridine] |
| 0.31 nM | O=C(Nc1ccc2c(c1)nc(CN1CCC(Oc3ccnc(Cc4ccc(Cl)cc4)n3)CC1)n2C[C@@H]1CCO1)c1cccnc1 [Compound 102a, N-(2-{[4-({2-[(4-chlorophenyl)methyl]pyrimidin-4-yl}oxy)piperidin-1-yl]methyl}-1-{[(2S)-oxetan-2-yl]methyl}-1H-1,3-benzodiazol-5-yl)pyridine-3-carboxamide] |
| 0.58 nM | Fc1cc(Cl)ccc1Cc1cccc(OC2CCN(Cc3nc4cc(-c5nnc(C(F)(F)F)[nH]5)nnc4n3C[C@@H]3CCO3)CC2)n1 [Compound 181a, 2-[(4-chloro-2-fluorophenyl)methyl]-6-({1-[(7-{[(2S)-oxetan-2-yl]methyl}-3-[5-(trifluoromethyl)-4H-1,2,4-triazol-3-yl]-7H-imidazo[4,5-c]pyridazin-6-yl)methyl]piperidin-4-yl}oxy)pyridine] |
| 0.14 nM | Fc1cc(Cl)ccc1Cc1cccc(OC2CCN(Cc3nc4cc(-c5nnc(C(F)(F)F)[nH]5)ccc4n3C[C@@H]3CCO3)CC2)n1 [Compound 137a, 2-{[4-({6-[(4-chloro-2-fluorophenyl)methyl]pyridin-2-yl}oxy)piperidin-1-yl]methyl}-1-{[(2S)-oxetan-2-yl]methyl}-5-[5-(trifluoromethyl)-4H-1,2,4-triazol-3-yl]-1H-1,3-benzodiazole] |
| 3.4 nM | Fc1cc(Cl)ccc1COc1cccc(N[C@@H]2CCN(Cc3nc4cc(-c5nnc(C(F)(F)F)[nH]5)ncc4n3C[C@@H]3CCO3)C2)n1 [Compound 174a, 6-[(4-chloro-2-fluorophenyl)methoxy]-N-[(3R)-1-[(3-{[(2S)-oxetan-2-yl]methyl}-6-[5-(trifluoromethyl)-4H-1,2,4-triazol-3-yl]-3H-imidazo[4,5-c]pyridin-2-yl)methyl]pyrrolidin-3-yl]pyridin-2-amine] |
| 0.13 nM | Fc1cc(Cl)ccc1Cc1nccc(OC2CCN(Cc3nc4cc(-c5nnn[nH]5)ncc4n3C[C@@H]3CCO3)CC2)n1 [Compound 177a, 2-[(4-chloro-2-fluorophenyl)methyl]-4-({1-[(3-{[(2S)-oxetan-2-yl]methyl}-6-(1H-1,2,3,4-tetrazol-5-yl)-3H-imidazo[4,5-c]pyridin-2-yl)methyl]piperidin-4-yl}oxy)pyrimidine] |
| 0.2 nM | N#CC1(Cn2c(CN3CCC(Oc4nc(Cc5ccc(Cl)cc5)ncc4F)CC3)nc3cc(-c4nnc(C(F)(F)F)[nH]4)ncc32)CC1 [Compound 178, 1-[(2-{[4-({2-[(4-chlorophenyl)methyl]-5-fluoropyrimidin-4-yl}oxy)piperidin-1-yl]methyl}-6-[5-(trifluoromethyl)-4H-1,2,4-triazol-3-yl]-3H-imidazo[4,5-c]pyridin-3-yl)methyl]cyclopropane-1-carbonitrile] |
| 16 nM | O=C(O)c1ccc2c(c1)nc(CN1CCC(Oc3cccc(Cc4ccc(Cl)cc4F)n3)CC1)n2C[C@@H]1CCO1 [Compound 188a, 2-{[4-({6-[(4-chloro-2-fluorophenyl)methyl]pyridin-2-yl}oxy)piperidin-1-yl]methyl}-1-{[(2S)-oxetan-2-yl]methyl}-1H-1,3-benzodiazole-5-carboxylic acid] |
| 5.8 nM | Cc1ccncc1C(=O)Nc1ccc2c(c1)nc(CN1CCC(Oc3ccnc(Cc4ccc(Cl)cc4)n3)CC1)n2C[C@@H]1CCO1 [Compound 105a, N-(2-{[4-({2-[(4-chlorophenyl)methyl]pyrimidin-4-yl}oxy)piperidin-1-yl]methyl}-1-{[(2S)-oxetan-2-yl]methyl}-1H-1,3-benzodiazol-5-yl)-4-methylpyridine-3-carboxamide] |
